This is an account of results in paper doi:10.1101/2019.12.19.881847v1 (biorxiv, 2019).

For assay [1], the target named is T1, VqmA (Vibrio cholerae, UniProt A0A0F0AZW0). As to the kind of experiment: biochemical.
Target sequence in this assay (A0A0F0AZW0 1-246 limits assumed): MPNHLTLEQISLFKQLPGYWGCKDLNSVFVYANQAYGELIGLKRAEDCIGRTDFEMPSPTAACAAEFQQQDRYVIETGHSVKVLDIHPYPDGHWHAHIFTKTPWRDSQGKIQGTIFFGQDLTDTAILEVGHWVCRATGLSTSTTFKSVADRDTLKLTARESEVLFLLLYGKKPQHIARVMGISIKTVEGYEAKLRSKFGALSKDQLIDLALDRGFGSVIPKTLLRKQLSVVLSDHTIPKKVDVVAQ
Assay [2] deals with T1, VqmA. As to the kind of experiment: biochemical. This is another data set of the same source.
Target sequence in this assay (A0A0F0AZW0 1-246): as the sequence (A0A0F0AZW0 1-246 limits assumed) above

Where two headings read alike, the source gives them in different places.

The molecule `CC1NC(C)(C)CNC1=O` (stereo not drawn) [compound 2, 3,5,5-trimethylpiperazin-2-one] gave a Kd at VqmA [1] of 7 ± 3.1 µM.
On the same count and under the same terms, the figure for `C[C@H]1NC(C)(C)CNC1=O` [compound 1, (R)-3,5,5-trimethylpiperazin-2-one] is 10.3 ± 3.1 µM.
The molecule `Cc1cnc(O)cn1` [compound 5, 5] gave a Kd on VqmA [2] of 6 ± 1 µM.

In general, Kd refers to the constant that tells how readily two partners part at equilibrium. Low values mean tighter binding, high ones weaker binding.
